Patent US11761045B2, “Splice variants associated with neomorphic SF3B1 mutants” (Eisai R&D Management Co., Ltd., priority 2015, dated 2023)

How the values were obtained:
Type in all cases: cell-based, human
Nalm-6 SF3B1^K700E cells = experiment: Normal and aberrant splicing in Nalm-6 isogenic cells by qPCR; settings: increasing concentrations, six hours
Method: (§1) E7107 was also tested in vitro in Nalm-6 isogenic cell lines for the ability to modulate normal and aberrant splicing induced by SF3B1^WT and SF3B1^K700E protein. Nalm-6 isogenic cells were treated with increasing concentrations of E7107 for six hours and RNA was analyzed by qPCR.
(§2) In addition, the ability of E7107 to modulate splicing was tested in mice bearing human tumor xenografts. Nalm-6 isogenic xenograft mice were generated by subcutaneously implanting 10×10^6 Nalm-6 isogenic cells into the flank of CB17-SCID mice, and tumors from these mice were collected at different timepoints after a single intravenous (IV) dose of E7107 (5 mg/kg) and analyzed to determine compound concentrations and splicing regulation. RNA was isolated from the tumors using RiboPure™ RNA purification kit (Ambion®) and used for NanoString® assay or qPCR. The RNA was retrotranscribed according to the instructions of the SuperScript® VILO™ cDNA synthesis kit (Invitrogen™) and 0.04 μl of cDNA was used for qPCR. qPCR for pre-mRNA EIF4A1 and mature mRNA […] and pharmacokinetic evaluation were performed as described in Eskens, F. A. et al. “Phase I pharmacokinetic and pharmacodynamic study of the first-in-class spliceosome inhibitor E7107 in patients with advanced solid tumors.” Clin Cancer Res 19, 6296-6304, doi:10.1158/1078-0432.CCR-13-0485 (2013). The primers and probes used for ZDHHC16 were the following: FW 5′-[…] (SEQ ID NO: 1194), RW 5′ […] (SEQ ID NO: 1195) and probe 5′ FAM […] (SEQ ID NO: 1196). The primers and probes used for COASY were the following: FW 5′-CGGTGGTGCAAGTGGAA (SEQ ID NO: 1197), RW 5′-[…] (SEQ ID NO: 1198) and probe 5′-FAM-[…] (SEQ ID NO: 1199).

Nalm-6 SF3B1^K700K cells = experiment: as above; settings: increasing concentrations, six hours
Method: as §1, §2

[1] = tested on: SF3B1^WT CLL patient samples; experiment: Splicing inhibition in CLL patient samples in vitro by RNA-Seq; settings: 10 nM, 6 hours
Method: (§3) The ability of E7107 to inhibit splicing in CLL patient samples in vitro was determined by isolating RNA from samples of E7107-treated patient cells treated for 6 hours with E7107 at 10 nM and performing RNA-Seq analysis. To do so, cells were washed with PBS after treatment with E7107, and RNA was isolated using PureLink (Life Technology) as reported in the manufacturer's manual. cDNA library preparation, sequencing and raw read filtering was performed as described in Ren, S. et al. “RNA-Seq analysis of prostate cancer in the Chinese population identifies recurrent gene fusions, cancer-associated long noncoding RNAs and aberrant alternative splicings.” Cell Res 22, 806-821, doi:10.1038/cr.2012.30 (2012).

[2] = tested on: neomorphic SF3B1^MUT CLL patient samples; experiment: as above; settings: 10 nM, 6 hours
Method: as §3

CC[C@H](O)[C@@H](C)[C@H]1O[C@@H]1C[C@@](C)(O)/C=C/C=C(\C)[C@H]1OC(=O)C[C@H](O)CC[C@@](C)(O)[C@@H](OC(=O)N2CCN(C3CCCCCC3)CC2)/C=C/[C@@H]1C [Compound E7107]
EIF4A1 pre-mRNA level (canonical splicing) (Nalm-6 SF3B1^K700E cells): accumulation of pre-mRNA for EIF4A1 | SLC25A19 mature mRNA level (canonical splicing) (Nalm-6 SF3B1^K700E cells): downregulation of the mature mRNA SLC25A19 | mature mRNA of abnormally spliced isoform of COASY (Nalm-6 SF3B1^K700E cells): downregulation of mature mRNA | mature mRNA of abnormally spliced isoform of ZDHHC16 (Nalm-6 SF3B1^K700E cells): downregulation of mature mRNA | EIF4A1 pre-mRNA level (canonical splicing) (Nalm-6 SF3B1^K700K cells): accumulation of pre-mRNA for EIF4A1 | SLC25A19 mature mRNA level (canonical splicing) (Nalm-6 SF3B1^K700K cells): downregulation of the mature mRNA SLC25A19 | expression of canonical splice isoforms [1]: inhibited the expression of canonical splice isoforms | expression of canonical splice isoforms [2]: inhibited the expression of canonical splice isoforms | aberrant splicing ([2]; all samples carrying neomorphic SF3B1 mutations): able to modulate aberrant splicing
